Measurements published in patent publication US7034110B2, “Method of identifying chemical compounds having selected properties for a particular application” (ArQule, Inc., priority 1994, dated 2006).
Read-outs that look alike come from different tables or passages of the source.

How the values were obtained:
chymotrypsin = chymotrypsin (Bos taurus, UniProt P00766); assay: competitive inhibition of chymotrypsin, standard assay using a BTEE substrate; assay type: biochemical
Protocol: The set of molecules where X=CH2 was tested as competitive inhibitiors of the enzyme chymotrypsin in a standard assay using a BTEE substrate.

[1] = boiling in 6 N NaOH for 24 hrs; cited from earlier work

Row | SMILES | Ki (chymotrypsin) [µM] | other results
1 | CC(=O)[N-][N+]1(CC(C)O)CCCCC1 (centres unmarked) [R1=Me, R2=Me] |  | Ki (chymotrypsin; competitive inhibition, BTEE substrate, set of molecules where X=CH2): not be an inhibitor
2 | CC(O)C[N+]1([N-]C(=O)c2ccccc2)CCCCC1 (centres unmarked) [R1=Me, R2=Ph] | 130 | 
3 | CC(=O)[N-][N+]1(CC(O)c2ccccc2)CCCCC1 (centres unmarked) [R1=Ph, R2=Me] | 200 | 
4 | O=C([N-][N+]1(CC(O)c2ccccc2)CCCCC1)c1ccccc1 (centres unmarked) [R1=Ph, R2=Ph] | 500 | 
5 | CN(C)C.NC(=O)c1ccccc1 [trimethyl amine benzamide] |  | hydrolytic stability [1]: unchanged
